What was measured:
[1] = system: rabbit serum obtained by immunizing a rabbit with the SARS-CoV strain Frankfurt 1; type: binding; parameters: Binding of a rabbit serum to linear peptides / Binding of a rabbit serum to looped peptides / Rabbit serum linear peptides / Rabbit serum looped peptides / Binding of a rabbit serum to linear peptides of protein N of SARS-CoV Urbani (Rabbit serum linear peptides) / Binding of a rabbit serum to looped/cyclic peptides of protein N of SARS-CoV Urbani (Rabbit serum looped peptides): unit not given here
[2] = system: antibodies in sera from SARS patients (sera 1a, 1b, 2, 6, 37, 62, London, SARS-yellow, SARS-green); type: binding, human; parameters: Binding of serum 6 to linear peptides of protein X1 of SARS-CoV Urbani / Binding of serum 37 to linear peptides of protein X1 of SARS-CoV Urbani / Binding of serum 6 to looped/cyclic peptide (PEPSCAN-ELISA) / Binding of serum 37 to looped/cyclic peptide (PEPSCAN-ELISA) / Binding of serum 37 to looped/cyclic peptides of protein X1 of SARS-CoV Urbani / Binding of serum 6 to linear peptides of protein X2 / Binding of serum 37 to linear peptides of protein X2 / Binding of serum 37 to looped/cyclic peptides of protein X2 of SARS-CoV Urbani / Binding of serum 6 to linear peptides of protein M of SARS-CoV Urbani / Binding of serum 37 to linear peptides of protein M of SARS-CoV Urbani / Binding of serum 6 to looped/cyclic peptides of protein M of SARS-CoV Urbani / Binding of serum 37 to looped/cyclic peptides of protein M of SARS-CoV Urbani / Binding of serum 6 to linear peptides of protein X3 of SARS-CoV Urbani / Binding of serum 37 to linear peptides of protein X3 of SARS-CoV Urbani / Binding of serum 37 to looped/cyclic peptides of protein X3 of SARS-CoV Urbani / Binding of serum 6 to linear peptides of protein X4 of SARS-CoV Urbani / Binding of serum 37 to linear peptides of protein X4 of SARS-CoV Urbani / Binding of serum 37 to looped/cyclic peptides of protein X4 of SARS-CoV Urbani / Binding of serum 6 to linear peptides of protein X5 of SARS-CoV Urbani / Binding of serum 37 to linear peptides of protein X5 of SARS-CoV Urbani / Binding of serum 37 to looped/cyclic peptides of protein X5 of SARS-CoV Urbani / Binding of serum 6 to linear peptides of protein N of SARS-CoV Urbani / Binding of serum 37 to linear peptides of protein N of SARS-CoV Urbani / Binding of serum 6 to linear peptide (PEPSCAN-ELISA) / Binding of serum 1a to looped/cyclic peptides of protein N of SARS-CoV Urbani / Binding of serum 1b to looped/cyclic peptides of protein N of SARS-CoV Urbani / Binding of serum 2 to looped/cyclic peptides of protein N of SARS-CoV Urbani / Binding of serum 6 to looped/cyclic peptides of protein N of SARS-CoV Urbani / Binding of serum 37 to looped/cyclic peptides of protein N of SARS-CoV Urbani / Binding of serum 62 to looped/cyclic peptides of protein N of SARS-CoV Urbani / Binding of serum London to looped/cyclic peptides of protein N of SARS-CoV Urbani / Binding of serum SARS-green to looped/cyclic peptides of protein N of SARS-CoV Urbani: unit not given here
[3] = system: control sera (pooled serum of ten healthy LUMC hospital workers; commercial negative donor pooled serum from the Dutch bloodbank); type: binding, human; parameters: Binding of Control serum LUMC to linear peptides / Binding of Control serum Blood-bank to linear peptides / Binding of Control serum LUMC to looped peptides / Binding of Control Serum Blood-Bank to Looped peptides / Binding of Control serum LUMC to linear peptides of the protein M of SARS-CoV Urbani / Binding of Control serum Blood-bank to linear peptides of the protein M of SARS-CoV Urbani / Binding of Control serum LUMC to looped peptides of the protein M of SARS-CoV Urbani / Binding of Control Serum Blood-Bank to Looped peptides of the protein M of SARS-CoV Urbani: unit not given here

| Sequence | Binding of Control Serum Blood-Bank to Looped peptides [3] | Binding of Control serum Blood-bank to linear peptides [3] | Binding of Control serum LUMC to linear peptides [3] | Binding of Control serum LUMC to looped peptides [3] | Binding of a rabbit serum to linear peptides [1] | Binding of a rabbit serum to looped peptides [1] | Binding of serum 1a to linear peptides of protein X2 [2] | Binding of serum 1a to looped/cyclic peptides of protein X2 of SARS-CoV Urbani [2] | Binding of serum 1b to linear peptides of protein X2 [2] | Binding of serum 1b to looped/cyclic peptides of protein X2 of SARS-CoV Urbani [2] | Binding of serum 2 to linear peptides of protein X2 [2] | Binding of serum 2 to looped/cyclic peptides of protein X2 of SARS-CoV Urbani [2] | Binding of serum 6 to linear peptides of protein X2 [2] | Binding of serum 6 to looped/cyclic peptides of protein X2 of SARS-CoV Urbani [2] | Binding of serum 37 to linear peptides of protein X2 [2] | Binding of serum 37 to looped/cyclic peptides of protein X2 of SARS-CoV Urbani [2] | Binding of serum 62 to linear peptides of protein X2 [2] | Binding of serum 62 to looped/cyclic peptides of protein X2 of SARS-CoV Urbani [2] | Binding of serum London to linear peptides of protein X2 [2] | Binding of serum London to looped/cyclic peptides of protein X2 of SARS-CoV Urbani [2] | also measured |
| --- | --- | --- | --- | --- | --- | --- | --- | --- | --- | --- | --- | --- | --- | --- | --- | --- | --- | --- | --- | --- | --- |
| GKVLPFHRWHTMVQT | 0.5 | 0.6 | 0.3 | 0.5 | – | – | – | – | – | – | – | – | – | – | – | – | – | – | – | – | Rabbit serum linear peptides [1]: 0.0; Rabbit serum looped peptides [1]: 0.3; Binding of serum 1a to linear peptides of protein X5 of SARS-CoV Urbani [2]: 0.8; Binding of serum 1a to looped/cyclic peptides of protein X5 of SARS-CoV Urbani [2]: 0.8; Binding of serum 1b to linear peptides of protein X5 of SARS-CoV Urbani [2]: 0.0; Binding of serum 1b to looped/cyclic peptides of protein X5 of SARS-CoV Urbani [2]: 0.5; Binding of serum 2 to linear peptides of protein X5 of SARS-CoV Urbani [2]: 0.6; Binding of serum 2 to looped/cyclic peptides of protein X5 of SARS-CoV Urbani [2]: 0.6; Binding of serum 6 to linear peptides of protein X5 of SARS-CoV Urbani [2]: 0.3; Binding of serum 6 to looped/cyclic peptides of protein X5 of SARS-CoV Urbani [2]: 0.4; Binding of serum 37 to linear peptides of protein X5 of SARS-CoV Urbani [2]: 0.5; Binding of serum 37 to looped/cyclic peptides of protein X5 of SARS-CoV Urbani [2]: 0.6; Binding of serum 62 to linear peptides of protein X5 of SARS-CoV Urbani [2]: 0.8; Binding of serum 62 to looped/cyclic peptides of protein X5 of SARS-CoV Urbani [2]: 0.5; Binding of serum London to linear peptides of protein X5 of SARS-CoV Urbani [2]: 0.8; Binding of serum London to looped/cyclic peptides of protein X5 of SARS-CoV Urbani [2]: 0.3; Binding of serum SARS-green to linear peptides of protein X5 of SARS-CoV Urbani [2]: 0.3; Binding of serum SARS-green to looped/cyclic peptides of protein X5 of SARS-CoV Urbani [2]: 0.5; Binding of serum SARS-yellow to linear peptides of protein X5 of SARS-CoV Urbani [2]: 0.1; Binding of serum SARS-yellow to looped/cyclic peptides of protein X5 of SARS-CoV Urbani [2]: 0.4 |
| ITMTTVYHITVSQIQ | 0.5 | 0.4 | 0.4 | 0.5 | 0.3 | 0.3 | 0.7 | 0.4 | 0.2 | 0.5 | 0.3 | 0.2 | 0.5 | 0.2 | 0.7 | 0.4 | 0.4 | 0.5 | 0.5 | 0.2 | Binding of serum SARS-green to linear peptides of protein X2 [2]: 0.2; Binding of serum SARS-green to looped/cyclic peptides of protein X2 of SARS-CoV Urbani [2]: 0.3; Binding of serum SARS-yellow to linear peptides of protein X2 [2]: 0.0; Binding of serum SARS-yellow to looped/cyclic peptides of protein X2 of SARS-CoV Urbani [2]: 0.3 |
| LLKVTAFQHQNSKKT | 0.4 | 0.3 | 0.3 | 0.5 | 0.6 | 0.3 | 0.2 | 0.4 | 0.0 | 0.3 | 0.1 | 0.2 | 0.2 | 0.2 | 0.5 | 0.3 | 0.1 | 0.4 | 0.2 | 0.2 | Binding of serum SARS-green to linear peptides of protein X2 [2]: 0.1; Binding of serum SARS-green to looped/cyclic peptides of protein X2 of SARS-CoV Urbani [2]: 0.3; Binding of serum SARS-yellow to linear peptides of protein X2 [2]: 0.1; Binding of serum SARS-yellow to looped/cyclic peptides of protein X2 of SARS-CoV Urbani [2]: 0.3 |
| LIQQWIQFMMSRRRL | 0.4 | 0.7 | 0.5 | 0.6 | 0.3 | 1.2 | 0.7 | 0.5 | 0.4 | 0.5 | 0.4 | 0.8 | 0.7 | 0.5 | 0.6 | 0.5 | 0.5 | 0.8 | 0.5 | 0.9 | Binding of serum SARS-green to linear peptides of protein X2 [2]: 0.4; Binding of serum SARS-green to looped/cyclic peptides of protein X2 of SARS-CoV Urbani [2]: 0.3; Binding of serum SARS-yellow to linear peptides of protein X2 [2]: 0.8; Binding of serum SARS-yellow to looped/cyclic peptides of protein X2 of SARS-CoV Urbani [2]: 0.5 |
| FIRQEEVQQELYSPL | 0.9 | 0.7 | 0.7 | 0.9 | – | – | – | – | – | – | – | – | – | – | – | – | – | – | – | – | Rabbit serum linear peptides [1]: 0.5; Rabbit serum looped peptides [1]: 0.5; Binding of serum 1a to linear peptides of protein X4 of SARS-CoV Urbani [2]: 0.8; Binding of serum 1b to linear peptides of protein X4 of SARS-CoV Urbani [2]: 0.6; Binding of serum 2 to linear peptides of protein X4 of SARS-CoV Urbani [2]: 0.5; Binding of serum 6 to linear peptides of protein X4 of SARS-CoV Urbani [2]: 0.5; Binding of serum 37 to linear peptides of protein X4 of SARS-CoV Urbani [2]: 0.8; Binding of serum 62 to linear peptides of protein X4 of SARS-CoV Urbani [2]: 0.7; Binding of serum London to linear peptides of protein X4 of SARS-CoV Urbani [2]: 0.7; Binding of serum SARS-green to linear peptides of protein X4 of SARS-CoV Urbani [2]: 0.5; Binding of serum SARS-yellow to linear peptides of protein X4 of SARS-CoV Urbani [2]: 0.7; Recognition of the peptide by sera of SARS-CoV infected individuals, and form (linear, looped/cyclic) in which it is recognized [2]: recognized in looped/cyclic form |
| LRARSVSPKLFIRQE | 0.6 | 0.6 | 0.6 | 0.7 | – | – | – | – | – | – | – | – | – | – | – | – | – | – | – | – | Recognition of the peptide by the rabbit serum [1]: recognized; Binding of serum 1a to linear peptides of protein X4 of SARS-CoV Urbani [2]: 0.7; Binding of serum 1a to looped/cyclic peptides of protein X4 of SARS-CoV Urbani [2]: 0.8; Binding of serum 1b to linear peptides of protein X4 of SARS-CoV Urbani [2]: 0.6; Binding of serum 1b to looped/cyclic peptides of protein X4 of SARS-CoV Urbani [2]: 0.6; Binding of serum 2 to linear peptides of protein X4 of SARS-CoV Urbani [2]: 0.5; Binding of serum 2 to looped/cyclic peptides of protein X4 of SARS-CoV Urbani [2]: 0.6; Binding of serum 6 to linear peptides of protein X4 of SARS-CoV Urbani [2]: 0.8; Binding of serum 6 to looped/cyclic peptides of protein X4 of SARS-CoV Urbani [2]: 0.8; Binding of serum 37 to linear peptides of protein X4 of SARS-CoV Urbani [2]: 0.7; Binding of serum 37 to looped/cyclic peptides of protein X4 of SARS-CoV Urbani [2]: 0.7; Binding of serum 62 to linear peptides of protein X4 of SARS-CoV Urbani [2]: 0.8; Binding of serum 62 to looped/cyclic peptides of protein X4 of SARS-CoV Urbani [2]: 0.7; Binding of serum London to linear peptides of protein X4 of SARS-CoV Urbani [2]: 0.8; Binding of serum London to looped/cyclic peptides of protein X4 of SARS-CoV Urbani [2]: 0.4; Binding of serum SARS-green to linear peptides of protein X4 of SARS-CoV Urbani [2]: 0.6; Binding of serum SARS-green to looped/cyclic peptides of protein X4 of SARS-CoV Urbani [2]: 0.6; Binding of serum SARS-yellow to linear peptides of protein X4 of SARS-CoV Urbani [2]: 0.3; Binding of serum SARS-yellow to looped/cyclic peptides of protein X4 of SARS-CoV Urbani [2]: 0.7 |
